Results reported in US10197567B2, “Azoline compound and azole compound library and method for producing same” (The University of Tokyo, priority 2011, dated 2019).
Square brackets hold non-standard residues; d marks the D form. Ends that are not written are not given here. * marks the point of attachment. Dap = NC[C@H](N)C(=O)O; For = O=C*

System: PatD
Test: PatD enzyme reaction: introduction of azoline rings into substrate peptides, mass change read by MALDI-TOF-MS
Assay type: biochemical, Prochloron didemni
Details: for Dehydrated molecules: modification with PatD of synthesized substrates (Table 11-2)
Method: After the DNA prepared in 3-2 was transcribed and translated in a cell-free protein expression system of 2.5 μl scale in accordance with the method of Kawakami, et al. (Kawakami et al., Chemistry & Biology 15, 32-42 (2008)) and the solution conditions were adjusted by adding 40 mM Tris-HCl (pH 8.0), 8 mM DTT, 4 mM MgCl2, and 0.8 mM ATP (each, final concentration), recombinant PatD was added.
The reaction was conducted under two conditions as described below.
The mass of the peptide was measured using MALDI-TOF-MS by using sinapinic acid as a matrix and whether a mass change occurred or not by the addition of PatD was checked. The number of azoline rings introduced can be found from the mass change.

Substance | Dehydrated molecules | other results
Ac—LAELSEEALGDA-GGGGG-VXAXIXFX (X=Dap)-A: synthetic peptide significantly different from a natural substrate (FIG. 17) (Ac-LAELSEEALGDAGGGGGV[Dap]A[Dap]I[Dap]F[Dap]A) | 4 | 
C1wt: PatE precursor peptide, leader-GLEAS-cassette-AYDGVEPS; cassette VTACITFC, same as wild type PatE (GLEASVTACITFCAYDGVEPS; An example of Recognition Sequence 1 based on Prochloron didemni.; Amino acid sequence of cassette region of wild type PatE; An example of Recognition Sequence 2 based on Prochloron didemni.) |  | number of azoline rings introduced by PatD (modification with PatD, change in molecular weight by MALDI-TOF-MS): four
PatEC1wt-GS: precursor peptide; cassette VTACITFC, recognition sequence 2 AYDGVGSGSGS (GLEASVTACITFCAYDGVGSGSGS; An example of Recognition Sequence 1 based on Prochloron didemni.; Amino acid sequence of cassette region of wild type PatE; An example of Recognition Sequence 2 based on Prochloron didemni.) |  | number of heterocycles in C-terminal short peptide (treated with PatD and Glu-C, leader sequence cleaved): four
fMLAELSEEALGDA-GGGGG-VXAX (X=Dap)-A: PatD substrate with shortened leader, GGGGG and Dap in the cassette (For-MLAELSEEALGDAGGGGGV[Dap]A[Dap]A) | 1 | 
fMLAELSEEALGDA-GGGGG-VXAX (X=PhSer)-A: PatD substrate with shortened leader, GGGGG and PhSer in the cassette (For-MLAELSEEALGDAGGGGGV[PhSer]A[PhSer]A) | 1 | 
fMNKKNILPQQGQPVIRLTAGQLSSQLAELSEEALGDA-GLEAS-LCGCTSYCYTVS-AYDGV: PatD substrate: leader, recognition sequence 1, cassette, recognition sequence 2 (For-MNKKNILPQQGQPVIRLTAGQLSSQLAELSEEALGDAGLEASLCGCTSYCYTVSAYDGV; cysteine pairing not given here) | 2 | 
fMNKKNILPQQGQPVIRLTAGQLSSQLAELSEEALGDA-GLEAS-VXAX (X=Dap)-AYDGVEPS: PatD substrate with Dap in the cassette (For-MNKKNILPQQGQPVIRLTAGQLSSQLAELSEEALGDAGLEASV[Dap]A[Dap]AYDGVEPS) | 2 | 
